{
  "source": "patent US4849410A",
  "about": "“Pseudopterosin and synthetic derivatives thereof” (The Regents of the University of California, priority 1987, dated 1989)",
  "key": {"P388 leukemia": {"tested_on": "P388 leukemia", "test": "Evaluation in mice bearing ip P388 leukemia", "assay_type": "in vivo, female B6D2F1 mice", "procedure": "Compound I was also evaluated in mice bearing P388 Leukemia as follows:\nCompound I was administered to the mice as a solution by first dissolving it in N,N-dimethylacetamide, adding an equal volume of Cremophor EL and then 8 volumes of water. The drug concentration was such that the desired dose was delivered in a volume of 0.5 ml per mouse. Dilutions from the highest dose in a dose-response study were made by the addition of water so that organic component of the formulation decreased with dose reduction; the drug remained in solution.\n10^6 P388 leukemia cells were implanted intraperitoneal in female B6D2F1 mice which were randomized to treatment groups of six animals each. Treatment was initiated 24 hours after tumor implantation and was continued daily for five days (Cisplatin was administered on Days 1 and 5 for the Group 1 mice). Mice were weighted as groups on Days 1, 5 and 9 to provide an indication of drug toxicity. Mice were monitored for survival daily for 45 days, and the median day of death was determined compared to three groups of untreated controls to provide percent increase in lifespan (ILS). ILS values of greater than or equal to 40 percent represent actual reduction in tumor cell burden during the course of treatment and are taken as indications of biologically significant antitumor effect."}, "[1]": {"tested_on": "M5076 reticulum cell sarcoma", "test": "Activity in mice bearing ip M5076 reticulum cell sarcoma", "assay_type": "in vivo, female B6D2F1 mice", "procedure": "(§1) Compound I was also evaluated for activity against solid tumors as follows:\n(§2) One-half ml of a 10 percent (v:v) brei of tumor cells prepared from solid B16 melanoma or M5076 reticulum cell sarcoma was implanted ip in female B6D2F1 mice which were randomized to treatment groups of 8 animals each. Treatment was initiated 24 hours after tumer inoculation and was continued daily for 10 days (cisplatin was administered q4Dx4 on Days 1, 5, 9 and 13). Mice were monitored daily for 60 days, and the median day of death was determined compared to three groups of untreated controls to provide percent increase in lifespan (ILS). ILS values of greater than or equal to 50 percent represent biologically significant antitumor effects. Cisplatin was curative in M5076 with 6/8 tumor-free survivors on Day 60 at the top dose level."}, "B16 melanoma": {"tested_on": "B16 melanoma", "test": "Activity in mice bearing ip B16 melanoma", "assay_type": "in vivo, female B6D2F1 mice", "procedure": "as §1, §2"}, "[2]": {"tested_on": "Phorbol Myristate Acetate (PMA) Induced Topical Inflammation of the Mouse Ear", "test": "Mouse Ear Anti-Inflammatory Assay (PMA, topical)", "assay_type": "in vivo", "conditions": "for Mean Ear Weight ± S.E.: Table IV, in mg; for Anti-inflammatory Activity: summary", "procedure": "a. Mouse Ear Anti-Inflammatory Assay\nTest compound and phorbol myristate acetate (PMA) are topically applied simultaneously to the pinnae of the ears of mice. Three hours twenty minutes after application, mice are sacrificed, ears removed and standard sized bores taken. Edema (inflammation) is measured as the difference in weight between control and treated ears.\nThe vheicle or carrier for the compounds used in the inflammatory and analgesic assays was as follows; For the mouse ear inflammatory assay, the vehicle was acetone. Controls received 25 microliters of acetone. Test compounds were applied to the experimental animals in 25 microliter volumes. For the sperm motility and fertilized sea urchin egg assays, the compounds were dissolved in 10 microliters undenatured ethanol."}, "[3]": {"tested_on": "Intraperitoneally Administered Phenylquinone", "test": "Phenylquinone Assay for Analgesia (writhing)", "assay_type": "in vivo, mice", "conditions": "for Mean Writhes per Animal / No. Writhes / % Change Relative to Control: 25 mg/kg; for No. Writhes: total of group; for % Change Relative to Control: writhes per animal; for Analgesic Activity: summary", "procedure": "d. Phenylquinone Assay for Analgesia\nTest compound is injected subcutaneously into mice. After 30 minutes, phenylquinone is injected intraperitoneally to cause pain as indicated by writhing.\nTest compound was administered subcutaneously in sesame oil at concentrations up to 5 mg per ml depending on the test compound dosage protocol. The highest dose was 50 mg per Kg. Control groups received sesame oil subcutaneously."}, "[4]": {"conditions": "Group 2, cisplatin 1 mg/kg ip, Days 1-5"}, "[5]": {"conditions": "Group 2, cisplatin 2 mg/kg ip, Days 1-5"}, "[6]": {"conditions": "Group I, cisplatin 3 mg/kg ip, Days 1 and 5"}, "[7]": {"conditions": "Group I, cisplatin 6 mg/kg ip, Days 1 and 5"}},
  "data": [
    {"molecule": "N.N.[Cl][Pt][Cl]", "note": "[Cisplatin, reference compound]", "values": [
      {"measurement": "Increase to Lifespan", "setting": "P388 leukemia; [4]", "value": 75, "unit": "%"},
      {"measurement": "Median Survival Time", "setting": "P388 leukemia; [4]", "value": 17.5, "unit": "days"},
      {"measurement": "Weight Change Day 5", "setting": "P388 leukemia; [4]", "value": -0.2, "unit": "gm"},
      {"measurement": "Weight Change Day 9", "setting": "P388 leukemia; [4]", "value": "+0.1 gm"},
      {"measurement": "Increase to Lifespan", "setting": "P388 leukemia; [5]", "value": 200, "unit": "%"},
      {"measurement": "Median Survival Time", "setting": "P388 leukemia; [5]", "value": 30, "unit": "days"},
      {"measurement": "Weight Change Day 5", "setting": "P388 leukemia; [5]", "value": -2.5, "unit": "gm"},
      {"measurement": "Weight Change Day 9", "setting": "P388 leukemia; [5]", "value": -0.9, "unit": "gm"},
      {"measurement": "Increase to Lifespan", "setting": "P388 leukemia; [6]", "value": 127, "unit": "%"},
      {"measurement": "Median Survival Time", "setting": "P388 leukemia; [6]", "value": 25, "unit": "days"},
      {"measurement": "Weight Change Day 5", "setting": "P388 leukemia; [6]", "value": "+0.3 gm"},
      {"measurement": "Weight Change Day 9", "setting": "P388 leukemia; [6]", "value": "+1.1 gm"},
      {"measurement": "Increase to Lifespan", "setting": "P388 leukemia; [7]", "value": 177, "unit": "%"},
      {"measurement": "Median Survival Time", "setting": "P388 leukemia; [7]", "value": 30.5, "unit": "days"},
      {"measurement": "Weight Change Day 5", "setting": "P388 leukemia; [7]", "value": -1.2, "unit": "gm"},
      {"measurement": "Weight Change Day 9", "setting": "P388 leukemia; [7]", "value": -1.1, "unit": "gm"},
      {"measurement": "Increase to Lifespan", "setting": "[1]; cisplatin 3 mg/kg ip", "value": 121, "unit": "%"},
      {"measurement": "Median Survival Time", "setting": "[1]; cisplatin 3 mg/kg ip", "value": 46.5, "unit": "days"},
      {"measurement": "Weight Change on Day 9", "setting": "[1]; cisplatin 3 mg/kg ip", "value": "+0.1 gm"},
      {"measurement": "Increase to Lifespan", "setting": "[1]; cisplatin 5 mg/kg ip", "value": "> 200", "unit": "%"},
      {"measurement": "Median Survival Time", "setting": "[1]; cisplatin 5 mg/kg ip", "value": "> 60", "unit": "days"},
      {"measurement": "Weight Change on Day 9", "setting": "[1]; cisplatin 5 mg/kg ip", "value": -1.6, "unit": "gm"},
      {"measurement": "tumor-free survivors on Day 60", "setting": "[1]; top dose level of cisplatin", "value": "6/8"},
      {"measurement": "Increase to Lifespan", "setting": "B16 melanoma; cisplatin 3 mg/kg ip", "value": 36, "unit": "%"},
      {"measurement": "Median Survival Time", "setting": "B16 melanoma; cisplatin 3 mg/kg ip", "value": 30, "unit": "days"},
      {"measurement": "Weight Change on Day 9", "setting": "B16 melanoma; cisplatin 3 mg/kg ip", "value": "+1.6 gm"},
      {"measurement": "Increase to Lifespan", "setting": "B16 melanoma; cisplatin 6 mg/kg ip", "value": 77, "unit": "%"},
      {"measurement": "Median Survival Time", "setting": "B16 melanoma; cisplatin 6 mg/kg ip", "value": 39, "unit": "days"},
      {"measurement": "Weight Change on Day 9", "setting": "B16 melanoma; cisplatin 6 mg/kg ip", "value": "+0.5 gm"}
    ]},
    {"molecule": "CC(C)=CCCC(C)C1CCC(C)c2c1cc(C)c(O)c2OC1OCC(O)C(O)C1O", "note": "(stereo not shown) [Compound IX]", "values": [
      {"measurement": "Mean Ear Weight ± S.E.", "setting": "[2]; 25.0 ug/ear", "value": "15.85 ± 2.51"},
      {"measurement": "Mean Ear Weight ± S.E.", "setting": "[2]; 50.0 ug/ear", "value": "14.04 ± 2.38"},
      {"measurement": "Anti-inflammatory Activity", "setting": "[2]", "value": "Active"},
      {"measurement": "Mean Writhes per Animal", "setting": "[3]", "value": 6.8},
      {"measurement": "No. Writhes", "setting": "[3]", "value": 68},
      {"measurement": "% Change Relative to Control", "setting": "[3]", "value": -26, "unit": "%"},
      {"measurement": "Analgesic Activity", "setting": "[3]", "value": "Active"}
    ]},
    {"molecule": "CC(=O)OC1COC(Oc2c(O)c(C)cc3c2C(C)CCC3C(C)CCC=C(C)C)C(O)C1O", "note": "(stereo not shown) [Compound VIII]", "values": [
      {"measurement": "Mean Ear Weight ± S.E.", "setting": "[2]; 25.0 ug/ear", "value": "13.93 ± 2.59"},
      {"measurement": "Mean Ear Weight ± S.E.", "setting": "[2]; 50.0 ug/ear", "value": "12.07 ± 1.69"},
      {"measurement": "Anti-inflammatory Activity", "setting": "[2]", "value": "Active"},
      {"measurement": "Analgesic Activity", "setting": "[3]", "value": "Active"}
    ]},
    {"molecule": "COc1c(C)c2c3c(c1O)C(C)CCC3C(C)CC2C=C(C)C", "note": "(stereo not shown) [Compound XII]", "values": [
      {"measurement": "Mean Writhes per Animal", "setting": "[3]", "value": 12.5},
      {"measurement": "No. Writhes", "setting": "[3]", "value": 25},
      {"measurement": "% Change Relative to Control", "setting": "[3]", "value": "+6%"}
    ]},
    {"molecule": "CC(=O)OC1=C(C)C2(O)C3=C(C1=O)C(C)CCC3C(C)CC2C=C(C)C", "note": "(stereo not shown) [Compound XI]", "values": [
      {"measurement": "Mean Writhes per Animal", "setting": "[3]", "value": 12.3},
      {"measurement": "No. Writhes", "setting": "[3]", "value": 37},
      {"measurement": "% Change Relative to Control", "setting": "[3]", "value": "+4%"}
    ]},
    {"molecule": "CC(=O)OC1C(O)COC(Oc2c(O)c(C)cc3c2C(C)CCC3C(C)CCC=C(C)C)C1O", "note": "(stereo not shown) [Compound X]", "values": [
      {"measurement": "Mean Ear Weight ± S.E.", "setting": "[2]; 50.0 ug/ear", "value": "10.64 ± 1.93"},
      {"measurement": "Anti-inflammatory Activity", "setting": "[2]", "value": "Active"}
    ]},
    {"molecule": "COc1ccc2c(c1)c(CC(=O)O)c(C)n2C(=O)c1ccc(Cl)cc1", "note": "[indomethacin, reference compound]", "values": [
      {"measurement": "decrease in edema", "setting": "[2]; 50 microgram", "value": 50, "unit": "%"}
    ]}
  ]
}
